Holding throughout (assay): growth of human tumour cells (NCI), 48 h
The test system of experiment [1] is SN12C renal.
The subject of experiment [2] is M14 melanoma.
In experiment [3] the test system is NCI-H522 lung.
Experiment [4] deals with MDA-MB-435.
The subject of experiment [5] is COLO 205 colon.
Experiment [6] deals with SK-MEL-2 melanoma.
Experiment [7] relates to NCI-H23 lung.
Experiment [8] concerns OVCAR-8 ovarian.
The test system of experiment [9] is PC-3 prostate.
In experiment [10] the test system is OVCAR-3 ovarian.

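The compound was tested at five concentrations on cells cultured in 96-well plates, with a 48-hour exposure period. GI50: concentration for 50% inhibition of growth. TGI is the concentration that stops growth completely.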

On to `COc1ccc(-c2nnc(COc3ccc(C(=O)/C=C/c4ccco4)cc3)o2)cc1`, for which the GI50 in experiment [1] is 3.17 µM; in [2] it was 4.03 µM; in experiment [3], 2.59 µM; in experiment [4] it was 2.13 µM; in experiment [5], 2.23 µM; in experiment [6] it was 13.9 µM. In addition, the GI50 was 7.02 µM in experiment [7], 3.04 µM in [8], 3.33 µM in experiment [9] and 1.95 µM in experiment [10]. Further, the TGI in experiment [1] came to 11.5 µM; in experiment [2], 14.6 µM; in experiment [3] it was 5.62 µM; in experiment [4], 5.08 µM; in experiment [5], 4.32 µM; in experiment [6], 27.7 µM. Moreover, the TGI was 20.5 µM in experiment [7], 10.1 µM in experiment [8], 11.8 µM in experiment [9] and 3.95 µM in experiment [10].

As for `Fc1cc2[nH]ncc2c2c3c(c(-c4cn[nH]c4)nc12)CCCC3`, the GI50 in experiment [1] is 1.06 µM; in [2], 0.541 µM; in [3] it was 0.829 µM; in experiment [4], 0.959 µM; in [5] it was 0.658 µM; in experiment [6], 0.842 µM. For the same molecule, the GI50 is 0.958 µM in [7], 1.48 µM in experiment [8], 1.77 µM in experiment [9] and 1.53 µM in experiment [10]. Besides, the TGI in experiment [1] came to 7.04 µM; in [2] it was 4.54 µM; in [3], 6.12 µM; in experiment [4], 3.61 µM; in experiment [5] it was 2.62 µM; in experiment [6], 3.46 µM. The TGI is 4.69 µM in experiment [7], greater than 30.2 µM in experiment [8], 33.7 µM in experiment [9] and 6.91 µM in experiment [10].

Take `C=C1C(=O)O[C@H]2[C@H]1CC/C(COC(=O)c1c[nH]c3ccccc13)=C\CC[C@@]1(C)O[C@@H]21`: the GI50 in experiment [1] is 0.237 µM; in experiment [2], 0.229 µM; in experiment [3], 0.194 µM; in [4], 0.242 µM; in [5], 0.244 µM; in experiment [6] it was 0.239 µM. The GI50 in experiment [7] is 1.29 µM; in experiment [8], 0.282 µM; in experiment [9], 0.384 µM; in experiment [10] it was 0.207 µM. Moreover, the TGI in experiment [1] is 0.623 µM; in [2] it was 0.651 µM; in [3] it was 0.412 µM; in experiment [4], 0.654 µM; in experiment [5], 0.663 µM; in experiment [6] it was 0.612 µM. The TGI in experiment [7] was found to be 3.76 µM; in [8], 1.03 µM; in experiment [9] it was 2.03 µM; in [10] it was 0.483 µM.

Regarding `COC(=O)C1=C(C)NC(C)=C(C(=O)OCCCN2CCC(c3ccccc3)(c3ccccc3)CC2)C1c1cccc([N+](=O)[O-])c1` (stereo not given), the TGI in experiment [1] turned out to be 2.99 µM; in [2] it was 3.13 µM; in experiment [3], 4.72 µM; in [4] it was 3.02 µM; in experiment [5], 3.08 µM; in experiment [6] it was 4.74 µM. Further, the TGI in experiment [7] worked out at 3.32 µM; in experiment [8], 3.39 µM; in experiment [9] it was 3.05 µM; in experiment [10], 2.8 µM.

As for `OCC#Cc1ccccc1C#Cc1ccccc1`, the GI50 in experiment [1] is 8.79 µM; in experiment [2], 10.6 µM; in [3], 24.1 µM; in [4], 14.2 µM; in [5] it was 19.6 µM; in experiment [6] it was 24.1 µM. Further, the GI50 was 13.7 µM in experiment [7], 19.6 µM in experiment [8], 11.5 µM in [9] and 6.9 µM in experiment [10]. In addition, the TGI in [1] stood at 21.3 µM; in experiment [2] it was 22.5 µM; in experiment [3], 69 µM; in experiment [4], 28.1 µM; in [5] it was 37.6 µM; in [6], 51.3 µM. Besides, the TGI in [7] turned out to be 27.6 µM; in [8] it was 40.6 µM; in experiment [9], 24.1 µM; in experiment [10] it was 20.3 µM.

With `Cc1c2c(nn1-c1ccc(S(=O)(=O)/N=C3\SCCC(=O)N3c3ccccc3)cc1)-c1ccccc1CC2`, the GI50 in experiment [1] is 87.5 µM; in [2], greater than 100 µM; in experiment [3], 91.4 µM; in experiment [4], greater than 100 µM; in experiment [5], greater than 100 µM; in experiment [6], greater than 100 µM. Further, the GI50 in experiment [7] was greater than 100 µM; in [8], 89.6 µM; in experiment [9], greater than 100 µM; in experiment [10], greater than 100 µM. The TGI in experiment [1], in experiment [2], in [3], in experiment [4], in experiment [5] and in experiment [6] was greater than 100 µM each time. For the same molecule, the TGI in [7], in [8], in [9] and in experiment [10] was greater than 100 µM throughout.

As for `Cc1ccccc1S(=O)(=O)OC1NS(=O)(=O)c2ccccc21` (stereo not given), the TGI in experiment [1], in experiment [2], in experiment [3], in experiment [4], in [5] and in experiment [6] was greater than 100 µM throughout. Also, the TGI in experiment [7], in experiment [8], in experiment [9] and in [10] was greater than 100 µM in each case.

Take `CCN1CCN(c2nc(C)cc(N(CCNc3ccnc4cc(Cl)ccc34)Cc3ccc4c(c3)OCO4)n2)CC1`: the GI50 in [1] is 2.58 µM; in experiment [2], 1.84 µM; in experiment [3], 1.95 µM; in experiment [4] it was 1.7 µM; in experiment [5] it was 1.63 µM; in [6], 1.98 µM. Further, the GI50 is 3.44 µM in experiment [7], 2.69 µM in experiment [8], 3.22 µM in experiment [9] and 2.28 µM in experiment [10]. Further, the TGI was found to be 8.27 µM in [1]; 3.44 µM in [2]; 4.06 µM in experiment [3]; 3.25 µM in [4]; 3.27 µM in [5]; 3.85 µM in [6]. Also, the TGI was 14.2 µM in experiment [7], 7.9 µM in experiment [8], 13.4 µM in experiment [9] and 7.02 µM in experiment [10].

Regarding `CCN(CC)/C(SCc1ccccc1)=C(\C(Cl)=C(Cl)Cl)[N+](=O)[O-]`, the TGI in experiment [1] worked out at 42.4 µM; in experiment [2] it was 29.3 µM; in [3], 47.2 µM; in experiment [4], 32 µM; in [5], 38.9 µM; in experiment [6], 45.5 µM. Moreover, the TGI in [7] amounted to 49.6 µM; in experiment [8], 31.7 µM; in experiment [9], 47.1 µM; in [10] it was 24.3 µM.

For the origin of these results see PubChem BioAssay (NCI).
